Measured values: ChEMBL document CHEMBL3870328, “Synthesis of novel Ral inhibitors: An in vitro and in vivo study” (Bioorg Med Chem Lett, 2016)

What was measured:
[1] = Drug metabolism in CD1 mouse liver microsomes assessed as CYP450-mediated demethylation by measuring M4 metabolite formation at 16.7 uM after 10 mins in presence of NADPH by LC-MS/MS analysis; assay type: ADME
[2] = Drug metabolism in mouse xenografted with human NCI-H2122 cells assessed as M1 metabolite formation in kidney at 50 mg/kg, ip after 3 hrs by LC-MS/MS analysis; assay type: ADME, organism-based; conditions: in vivo
[3] = Drug metabolism in mouse xenografted with human NCI-H2122 cells assessed as M4 metabolite formation in liver at 50 mg/kg, ip after 3 hrs by LC-MS/MS analysis; assay type: ADME, organism-based; conditions: in vivo
[4] = Drug metabolism in mouse xenografted with human NCI-H2122 cells assessed as M1 metabolite formation in lungs at 50 mg/kg, ip after 3 hrs by LC-MS/MS analysis; assay type: ADME, organism-based, Lung; conditions: in vivo
[5] = Drug metabolism in mouse xenografted with human NCI-H2122 cells assessed as M4 metabolite formation in heart at 50 mg/kg, ip after 3 hrs by LC-MS/MS analysis; assay type: ADME, organism-based; conditions: in vivo
[6] = Drug metabolism in mouse xenografted with human NCI-H2122 cells assessed as M4 metabolite formation in lungs at 50 mg/kg, ip after 3 hrs by LC-MS/MS analysis; assay type: ADME, organism-based, Lung; conditions: in vivo
[7] = Drug metabolism in mouse xenografted with human NCI-H2122 cells assessed as 6-amino-4-(2,5-dihydroxyphenyl)-3-(naphthalen-2-yl)-1,4-dihydropyrano[2,3-c]pyrazole-5-carbonitrile metabolite formation in tumor at 50 mg/kg, ip after 3 hrs by LC-MS/MS analysis; assay type: ADME, organism-based, Neoplasm; conditions: in vivo
[8] = Plasma concentration in mouse xenografted with human NCI-H2122 cells at 50 mg/kg, ip after 3 hrs by LC-MS/MS analysis; assay type: ADME, organism-based
[9] = Drug uptake in lungs of mouse xenografted with human NCI-H2122 cells at 50 mg/kg, ip after 3 hrs by LC-MS/MS analysis; assay type: ADME, organism-based; conditions: lung, read-out: Drug uptake
[10] = Drug metabolism in mouse xenografted with human NCI-H2122 cells assessed as M1 metabolite formation in tumor at 50 mg/kg, ip after 3 hrs by LC-MS/MS analysis; assay type: ADME, organism-based, Neoplasm; conditions: in vivo
[11] = Drug metabolism in mouse xenografted with human NCI-H2122 cells assessed as M5 metabolite formation in heart at 50 mg/kg, ip after 3 hrs by LC-MS/MS analysis; assay type: ADME, organism-based; conditions: in vivo
[12] = Drug uptake in tumor of mouse xenografted with human NCI-H2122 cells at 50 mg/kg, ip after 3 hrs by LC-MS/MS analysis; assay type: ADME, organism-based, Neoplasm; conditions: read-out: Drug uptake
[13] = Drug metabolism in CD1 mouse liver microsomes assessed as CYP450-mediated mono-oxidation by measuring M3 metabolite formation at 16.7 uM after 10 mins in presence of NADPH by LC-MS/MS analysis; assay type: ADME
[14] = Drug metabolism in mouse xenografted with human NCI-H2122 cells assessed as 6-amino-4-(2,5-dihydroxyphenyl)-3-(naphthalen-2-yl)-1,4-dihydropyrano[2,3-c]pyrazole-5-carbonitrile metabolite formation in lungs at 50 mg/kg, ip after 3 hrs by LC-MS/MS analysis; assay type: ADME, organism-based, Lung; conditions: in vivo
[15] = Drug metabolism in mouse xenografted with human NCI-H2122 cells assessed as M5 metabolite formation in kidney at 50 mg/kg, ip after 3 hrs by LC-MS/MS analysis; assay type: ADME, organism-based; conditions: in vivo
[16] = Drug metabolism in mouse xenografted with human NCI-H2122 cells assessed as M5 metabolite formation in tumor at 50 mg/kg, ip after 3 hrs by LC-MS/MS analysis; assay type: ADME, organism-based, Neoplasm; conditions: in vivo
[17] = Drug metabolism in mouse xenografted with human NCI-H2122 cells assessed as M3 metabolite formation in lungs at 50 mg/kg, ip after 3 hrs by LC-MS/MS analysis; assay type: ADME, organism-based, Lung; conditions: in vivo
[18] = Drug metabolism in mouse xenografted with human NCI-H2122 cells assessed as M3 metabolite formation in plasma at 50 mg/kg, ip after 3 hrs by LC-MS/MS analysis; assay type: ADME, organism-based; conditions: in vivo
[19] = Drug uptake in kidney of mouse xenografted with human NCI-H2122 cells at 50 mg/kg, ip after 3 hrs by LC-MS/MS analysis; assay type: ADME, organism-based; conditions: read-out: Drug uptake
[20] = Drug metabolism in mouse xenografted with human NCI-H2122 cells assessed as 6-amino-4-(2,5-dihydroxyphenyl)-3-(naphthalen-2-yl)-1,4-dihydropyrano[2,3-c]pyrazole-5-carbonitrile metabolite formation in kidney at 50 mg/kg, ip after 3 hrs by LC-MS/MS analysis; assay type: ADME, organism-based; conditions: in vivo
[21] = Drug metabolism in mouse xenografted with human NCI-H2122 cells assessed as M1 metabolite formation in plasma at 50 mg/kg, ip after 3 hrs by LC-MS/MS analysis; assay type: ADME, organism-based; conditions: in vivo
[22] = Drug metabolism in CD1 mouse liver microsomes assessed as CYP450-mediated mono-oxidation by measuring 6-amino-4-(2,5-dihydroxyphenyl)-3-(naphthalen-2-yl)-1,4-dihydropyrano[2,3-c]pyrazole-5-carbonitrile metabolite formation at 16.7 uM after 10 mins in presence of NADPH by LC-MS/MS analysis; assay type: ADME
[23] = Drug metabolism in mouse xenografted with human NCI-H2122 cells assessed as M3 metabolite formation in tumor at 50 mg/kg, ip after 3 hrs by LC-MS/MS analysis; assay type: ADME, organism-based, Neoplasm; conditions: in vivo
[24] = Drug metabolism in mouse xenografted with human NCI-H2122 cells assessed as M4 metabolite formation in plasma at 50 mg/kg, ip after 3 hrs by LC-MS/MS analysis; assay type: ADME, organism-based; conditions: in vivo
[25] = Drug metabolism in mouse xenografted with human NCI-H2122 cells assessed as M1 metabolite formation in heart at 50 mg/kg, ip after 3 hrs by LC-MS/MS analysis; assay type: ADME, organism-based; conditions: in vivo
[26] = Drug metabolism in mouse xenografted with human NCI-H2122 cells assessed as M5 metabolite formation in plasma at 50 mg/kg, ip after 3 hrs by LC-MS/MS analysis; assay type: ADME, organism-based; conditions: in vivo
[27] = Drug metabolism in mouse xenografted with human NCI-H2122 cells assessed as M5 metabolite formation in lungs at 50 mg/kg, ip after 3 hrs by LC-MS/MS analysis; assay type: ADME, organism-based, Lung; conditions: in vivo
[28] = Drug metabolism in mouse xenografted with human NCI-H2122 cells assessed as M4 metabolite formation in tumor at 50 mg/kg, ip after 3 hrs by LC-MS/MS analysis; assay type: ADME, organism-based, Neoplasm; conditions: in vivo
[29] = Drug metabolism in mouse xenografted with human NCI-H2122 cells assessed as 6-amino-4-(2,5-dihydroxyphenyl)-3-(naphthalen-2-yl)-1,4-dihydropyrano[2,3-c]pyrazole-5-carbonitrile metabolite formation in liver at 50 mg/kg, ip after 3 hrs by LC-MS/MS analysis; assay type: ADME, organism-based; conditions: in vivo
[30] = Drug uptake in brain of mouse xenografted with human NCI-H2122 cells at 50 mg/kg, ip after 3 hrs by LC-MS/MS analysis; assay type: ADME, organism-based; conditions: read-out: Drug uptake
[31] = Drug metabolism in mouse xenografted with human NCI-H2122 cells assessed as M3 metabolite formation in liver at 50 mg/kg, ip after 3 hrs by LC-MS/MS analysis; assay type: ADME, organism-based; conditions: in vivo
[32] = Drug metabolism in mouse xenografted with human NCI-H2122 cells assessed as M3 metabolite formation in kidney at 50 mg/kg, ip after 3 hrs by LC-MS/MS analysis; assay type: ADME, organism-based; conditions: in vivo

Drug metabolism [1]: Metabolite_Detected | Drug metabolism [2]: 135.2 ng/g | Drug metabolism [3]: 1391.3 ng/g | Drug metabolism [4]: 18.2 ng/g | Drug metabolism [5]: 33.5 ng/g | Drug metabolism [6]: 46.8 ng/g | Drug metabolism [7]: 0.6 ng/g | concentration at 3 h [8]: 3910 ng/mL | concentration at 3 h [9]: 21600 ng/g | Drug metabolism [10]: 7.4 ng/g | Drug metabolism [11]: 5.5 ng/g | concentration at 3 h [12]: 5830 ng/g | Drug metabolism [13]: Metabolite_Detected | Drug metabolism [14]: 1.1 ng/g | Drug metabolism [15]: 20.9 ng/g | Drug metabolism [16]: 1.4 ng/g | Drug metabolism [17]: 2 ng/g | Drug metabolism [18]: 14.2 ng/mL | concentration at 3 h [19]: 24600 ng/g | Drug metabolism [20]: 3.7 ng/g | Drug metabolism [21]: 7.7 ng/mL | Drug metabolism [22]: Metabolite_Detected | Drug metabolism [23]: 0.7 ng/g | Drug metabolism [24]: 37.8 ng/mL | Drug metabolism [25]: 12.4 ng/g | Drug metabolism [26]: 2.7 ng/mL | Drug metabolism [27]: 11.5 ng/g | Drug metabolism [28]: 10.2 ng/g | Drug metabolism [29]: 160.8 ng/g | concentration at 3 h [30]: 570 ng/g | Drug metabolism [31]: 49.6 ng/g | Drug metabolism [32]: 4.1 ng/g
SMILES: COc1ccc(OC)c(C2C(C#N)=C(N)Oc3[nH]nc(-c4ccc5ccccc5c4)c32)c1 (configuration not stated)
